# Measurements from US8097422B2, “Kir channel modulators” (Salk Institute for Biological Studies, priority 2007, dated 2012).
# Experiments:
# Assay type in all cases: cell-based
# IRK1 channel = target: T1, IRK1 channel (Mus musculus, UniProt P35561); assay: whole-cell patch clamp, HEK293T cells transfected with IRK1; conditions: n=5; for inhibition of IRK1 channel, percentage inhibition: equimolar 50 mM alcohol series
# T1 construct: expressed in transfected cells; host or cells: HEK293T
# T1 sequence (P35561 1-428): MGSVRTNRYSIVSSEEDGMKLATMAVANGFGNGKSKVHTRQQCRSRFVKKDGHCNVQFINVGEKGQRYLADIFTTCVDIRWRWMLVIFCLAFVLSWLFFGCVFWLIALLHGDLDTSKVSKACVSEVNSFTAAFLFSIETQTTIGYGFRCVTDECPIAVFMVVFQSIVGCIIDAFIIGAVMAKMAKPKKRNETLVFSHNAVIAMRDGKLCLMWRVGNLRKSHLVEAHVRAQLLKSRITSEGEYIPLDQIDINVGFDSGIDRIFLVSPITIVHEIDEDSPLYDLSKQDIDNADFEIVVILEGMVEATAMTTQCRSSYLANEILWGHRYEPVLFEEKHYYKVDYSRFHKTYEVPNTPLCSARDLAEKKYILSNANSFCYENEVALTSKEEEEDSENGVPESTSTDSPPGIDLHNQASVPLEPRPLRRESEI
# Protocol: Using whole-cell patch clamp, technique in HEK293T cells transfected with IRK1 or GIRK2 channels, it was determined that MPD does in fact modulate these channels. Addition of 100 mM MPD inhibits the inward currents of the IRK1 channel, without changing the reversal potential or altering inward rectification (FIG. 1e).
# GIRK2c, GIRK4, IRK1, M2R and m-Phosducin were subcloned into PCDNA3.1 vector (Invitrogen). Point mutations were introduced by Quickchange site directed mutagenesis kit (Stratagene). The GIRK2 PIP mutant was generated by overlap-PCR method. Briefly, amino acid 216-NLRKSHL-222 (SEQ ID NO: 25) of IRK1 was swapped into 228-DLRNSHL-234 (SEQ ID NO: 26) of GIRK2, in the region designated βC-βD loop in the crystal structure. Mutations were confirmed by automated DNA sequencing methods.
# HEK 293T cells were cultured in DMEM supplemented with 10% FBS, and 1× Glutamax (Invitrogen) in a humidified 37° incubator with 5% CO2. Cells were plated in a 12 well dish, and were transiently transfected using Lipofectamine 2000 (Invitrogen). After 12-24 hrs, cells were re-plated to 12-mm glass coverslips coated with poly-D-Lysine (20 microgram/ml).
# HEK293 cells were transfected with 0.2 micrograms of channel cDNA. The cells were co-transfected with 0.04 micrograms of eYFP cDNA to identify transfected cells. 0.8 micrograms of Muscarinic Receptor 2 (M2R) was also co-transfected for experiments with Carbachol. For experiments with and without m-phosducin, 0.8 ug of m-phosducin cDNA was used versus a PCDNA3.1 vector control.
# Whole-cell patch clamp recordings were performed 24-72 hrs after transfection. Borosilicate glass electrodes (Warner Instruments) of […] filled with intracellular solution (130 mM KCl, 20 mM NaCl, 5 mM EGTA, 2.56 mM K2ATP, 5.46 mM MgCl2, 0.30 mM Li2GTP, and 10 mM HEPES (pH 7.4)) was used. Membrane currents were recorded using Axopatch 200B (Axon Instruments) amplifier, adjusted electronically for cell capacitance and series resistance (80-100%), filtered at 1 kHz with an 8-pole Bessel filter and digitized at 5 kHz with a Digidata 1200 interface (Axon Instruments). The cells rapidly perfused with a 20 mM K^+ (20K) solution (20 mM KCl, 140 mM NaCl, 0.5 mM CaCl2, 2 mM MgCl2 and 10 mM HEPES (pH7.4)). Alcohols, 5 μM Carbachol, and 1 mM BaCl2 (diluted in 20K solution) were applied from outside the cell with the rapid perfusion system (Warner Instruments). Whole-cell currents were measured using a ramp protocol that holds at −40 mV, steps to −100 mV then ramps to +50 mV and repeats every 2 seconds. Current-voltage relationships also were obtained from the ramp protocol. This protocol was used to measure the inwardly rectifying currents at −100 mV and to ensure stability of recording by monitoring a reversal potential and inward rectification. Current density was measured by dividing inward current at −100 mV by membrane capacitance that was compensated during the recording. Basal currents were measured as the Ba^++ blocked inward currents at −100 mV. Alcohol and Carbachol modulated currents were measured by averaging two consecutive current readings upon reaching steady state, and subtracting the averaged basal current before and after the application of modulator. Pooled data are presented as Mean±SEM and evaluated for statistical significance by a 1-way ANOVA, followed by Bonferroni's multiple comparison post-hoc test.
# [1] = tested on: GIRK2 PIP S148T mutant channel; assay: whole-cell patch clamp, GIRK2 PIP S148T mutant channel; conditions: GIRK2 PIP S148T compared with GIRK2 PIP L257W
# Protocol: (§1) Point mutations were introduced by Quickchange site directed mutagenesis kit (Stratagene). The GIRK2 PIP mutant was generated by overlap-PCR method. […] Mutations were confirmed by automated DNA sequencing methods. […] Cells were plated in a 12 well dish, and were transiently transfected using Lipofectamine 2000 (Invitrogen). After 12-24 hrs, cells were re-plated to 12-mm glass coverslips coated with poly-D-[…] microgram/ml). […] The cells were co-transfected with 0.04 micrograms of eYFP cDNA to identify transfected cells. 0.8 micrograms of Muscarinic Receptor 2 (M2R) was also co-transfected for experiments with Carbachol. […] Whole-cell patch clamp recordings were performed 24-72 hrs after transfection. […] Alcohols, 5 μM Carbachol, and 1 mM BaCl2 (diluted in 20K solution) were applied from outside the cell with the rapid perfusion system (Warner Instruments). […] Current-voltage relationships also were obtained from the ramp protocol. This protocol was used to measure the inwardly rectifying currents at -100 mV and to ensure stability of recording by monitoring a reversal potential and inward rectification. […] Alcohol and Carbachol modulated currents were measured by averaging two consecutive current readings upon reaching steady state, and subtracting the averaged basal current before and after the application of modulator.
# [2] = target: T2, GIRK2 Y349W mutant channel (Mus musculus, UniProt P48542, Y349W); assay: whole-cell patch clamp, GIRK2 Y349W mutant channel; conditions: n=10
# T2 construct: expressed in transfected cells; host or cells: HEK293T
# Protocol: as §1
# T2 sequence (P48542 whole entry Y349W): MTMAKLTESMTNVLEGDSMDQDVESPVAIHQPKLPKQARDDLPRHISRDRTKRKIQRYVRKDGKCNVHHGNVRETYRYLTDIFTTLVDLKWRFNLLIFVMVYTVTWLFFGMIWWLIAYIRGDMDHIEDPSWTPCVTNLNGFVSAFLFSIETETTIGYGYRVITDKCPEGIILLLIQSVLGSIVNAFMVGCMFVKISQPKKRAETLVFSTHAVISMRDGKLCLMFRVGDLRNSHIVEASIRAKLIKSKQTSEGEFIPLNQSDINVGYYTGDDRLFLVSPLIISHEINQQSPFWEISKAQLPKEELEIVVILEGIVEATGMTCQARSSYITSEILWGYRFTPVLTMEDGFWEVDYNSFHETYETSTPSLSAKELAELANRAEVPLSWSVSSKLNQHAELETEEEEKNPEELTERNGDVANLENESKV
Molecule,"inhibition of IRK1 channel, percentage inhibition (IRK1 channel) [%]","inhibition at 100000 µM (IRK1 channel; HEK-293T, 100 mM MPD, -100 mV, read-out: percent change of basal current, IRK) [%]",change in sensitivity to inhibition when Ser at the P-loop is mutated to Thr [1] [fold],"Carbachol activated current, GIRK2 Y349W, percentage change from basal current ([2]; 5 μM Carbachol)","1-PrOH activated current, GIRK2 Y349W, percentage change from basal current [2] [%]"
"CCO [EtOH, ethanol]",−5±1,–,–,–,–
1-butanol [1-BuOH],−20±3,–,–,–,–
"CC(O)CC(C)(C)O (racemic) [MPD, 2-methyl-2,4-pentanediol]",−25±3,32.5 ± 3.9,~20,–,–
C[N+](C)(C)CCOC(N)=O [Carbachol],–,–,–,56±5,–
1-propanol [1-PrOH],−12±2,–,~100,–,256±25
